Measurements reported in BindingDB's records for doi:10.1016/j.bmcl.2006.01.126 (Amgen, 2006).

Assay: Inhibition of TARC-mediated CEM cell migration

IC50 [µM]	Structure (SMILES)
0.53	c1ccc2c(Nc3nc(CN(CC4CCCCC4)CC4CCCCC4)cs3)cccc2c1 [4-((bis(cyclohexylmethyl)amino)methyl)-N-(naphthalen-1-yl)thiazol-2-amine]
6.4	Cc1csc(Nc2cccc3ccccc23)n1 [4-methyl-N-(naphthalen-1-yl)thiazol-2-amine]
